Source: the NIST ThermoML archive (doi:10.1016/j.jct.2016.02.007)
Numbers after ± are expanded uncertainties.

Experiments:
[1] = 101.3 kPa, Liquid, Vibrating tube method
[2] = wn = mass fraction of the nth substance listed; conditions: 101.3 kPa, Liquid, Vibrating tube method, w2 = 0

Row | mass density ([1]; 293.15 K) [kg/m3] | mass density ([1]; 298.15 K) [kg/m3] | mass density ([1]; 303.15 K) [kg/m3] | mass density ([1]; 308.15 K) [kg/m3] | mass density ([1]; 313.15 K) [kg/m3] | mass density ([1]; 318.15 K) [kg/m3] | mass density ([1]; 323.15 K) [kg/m3] | mass density ([1]; 328.15 K) [kg/m3] | mass density ([1]; 333.15 K) [kg/m3] | mass density ([1]; 338.15 K) [kg/m3] | mass density ([1]; 343.15 K) [kg/m3] | mass density ([2]; 313.15 K) [kg/m3] | mass density ([2]; 318.15 K) [kg/m3] | mass density ([2]; 323.15 K) [kg/m3] | mass density ([2]; 328.15 K) [kg/m3] | mass density ([2]; 333.15 K) [kg/m3] | mass density ([2]; 338.15 K) [kg/m3] | mass density ([2]; 343.15 K) [kg/m3] | Compound
1 | 886.7 ± 4.8 | 883 ± 4.8 | 879.1 ± 4.8 | 875.1 ± 4.8 | 871.2 ± 4.8 | 867.2 ± 4.8 | 863.1 ± 4.8 | 859.1 ± 4.8 | 855 ± 4.8 | 850.8 ± 4.8 | 846.7 ± 4.8 |  |  |  |  |  |  |  | CN(C)CCCO [3-dimethylamino-1-propanol]
2 |  |  |  |  | 992.3 ± 1 | 990.3 ± 1 | 988 ± 1 | 985.6 ± 1 | 983.3 ± 1 | 980.7 ± 1 | 977.9 ± 1 |  |  |  |  |  |  |  | O [water]
3 |  |  |  |  |  |  |  |  |  |  |  | 992.3 ± 4.8 | 990.3 ± 4.8 | 988 ± 4.8 | 985.6 ± 4.8 | 983.3 ± 4.8 | 980.7 ± 4.8 | 977.9 ± 4.8 | O [water] + CN(C)CCCO
